Assay results as given in patent US12077503B2, “Substituted cyclic amides and their use as herbicides” (FMC CORPORATION, priority 2015, dated 2024).

How the values were obtained:
Type in all cases: in vivo
Kochia (Kochia scoparia) [1] = test: Test A postemergence; details: for Kochia plant response rating: 125 g ai/ha, visual injury rating on 0 to 100 scale (0 no effect, 100 complete control), approx. 10 d; for Plant response rating, Kochia: 500 g ai/ha
Excerpt: (§1) Seeds of plant species selected from barnyardgrass (Echinochloa crus-galli), Kochia (Kochia scoparia), ragweed (common ragweed, Ambrosia elatior), ryegrass, Italian (Italian ryegrass, Lolium multiflorum), crabgrass, large (Digitaria sanguinalis), giant foxtail (Setaria faberii), green foxtail (Setaria viridis), morningglory (Ipomoea spp.), pigweed (Amaranthus retroflexus), velvetleaf (Abutilon theophrasti), wheat (Triticum aestivum), and corn (Zea mays) were planted into a blend of loam soil and sand and treated preemergence with a directed soil spray using test chemicals formulated in anon-phytotoxic solvent mixture which included a surfactant.
(§2) At the same time, plants selected from these crop and weed species and also blackgrass (Alopecurus myosuroides), and Galium (catchweed bedstraw, Galium aparine) were planted in pots containing the same blend of loam soil and sand and treated with postemergence applications of test chemicals formulated in the same manner. Plants ranged in height from 2 to 10 cm and were in the one- to two-leaf stage for the postemergence treatment. Treated plants and untreated controls were maintained in a greenhouse for approximately 10 d, after which time all treated plants were compared to untreated controls and visually evaluated for injury. Plant response ratings, summarized in Table A, are based on a 0 to 100 scale where 0 is no effect and 100 is complete control. A dash (-) response means no test result.

[2] = tested on: barnyardgrass (Echinochloa crus-galli); test: Test A postemergence; details: for Barnyardgrass plant response rating: 125 g ai/ha, visual injury rating on 0 to 100 scale (0 no effect, 100 complete control), approx. 10 d; for Plant response rating, Barnyardgrass: 500 g ai/ha
Excerpt: as §1, §2

[3] = tested on: pigweed (Amaranthus retroflexus); test: Test A postemergence; details: for Pigweed plant response rating: 125 g ai/ha, visual injury rating on 0 to 100 scale (0 no effect, 100 complete control), approx. 10 d; for Plant response rating, Pigweed: 500 g ai/ha
Excerpt: as §1, §2

[4] = tested on: ryegrass, Italian (Italian ryegrass, Lolium multiflorum); test: Test A postemergence; details: for Ryegrass, Italian plant response rating: 125 g ai/ha, visual injury rating on 0 to 100 scale (0 no effect, 100 complete control), approx. 10 d; for Plant response rating, Ryegrass, Italian: 500 g ai/ha
Excerpt: as §1, §2

[5] = tested on: ragweed (common ragweed, Ambrosia elatior); test: Test A postemergence; details: for Ragweed plant response rating: 125 g ai/ha, visual injury rating on 0 to 100 scale (0 no effect, 100 complete control), approx. 10 d; for Plant response rating, Ragweed: 500 g ai/ha
Excerpt: as §1, §2

corn (Zea mays) = test: Test A postemergence; details: for Corn plant response rating: 125 g ai/ha, visual injury rating on 0 to 100 scale (0 no effect, 100 complete control), approx. 10 d; for Plant response rating, Corn: 500 g ai/ha
Excerpt: as §1, §2

[6] = tested on: giant foxtail (Setaria faberii); test: Test A postemergence; details: for Foxtail, Giant plant response rating: 125 g ai/ha, visual injury rating on 0 to 100 scale (0 no effect, 100 complete control), approx. 10 d; for Plant response rating, Foxtail, Giant: 500 g ai/ha
Excerpt: as §1, §2

[7] = tested on: blackgrass (Alopecurus myosuroides); test: Test A postemergence; details: for Blackgrass plant response rating: 125 g ai/ha, visual injury rating on 0 to 100 scale (0 no effect, 100 complete control), approx. 10 d; for Plant response rating, Blackgrass: 500 g ai/ha
Excerpt: as §1, §2

[8] = tested on: wheat (Triticum aestivum); test: Test A postemergence; details: for Wheat plant response rating: 125 g ai/ha, visual injury rating on 0 to 100 scale (0 no effect, 100 complete control), approx. 10 d; for Plant response rating, Wheat: 500 g ai/ha
Excerpt: as §1, §2

[9] = tested on: Galium (catchweed bedstraw, Galium aparine); test: Test A postemergence; details: for Galium plant response rating: 125 g ai/ha, visual injury rating on 0 to 100 scale (0 no effect, 100 complete control), approx. 10 d; for Plant response rating, Galium: 500 g ai/ha
Excerpt: as §1, §2

Kochia (Kochia scoparia) [10] = test: Test A preemergence; details: for Plant response rating, Kochia: 125 g ai/ha; for Kochia plant response rating (0 to 100 scale, 0 is no effect, 100 is complete control): 500 g ai/ha, visual injury approx. 10 d
Excerpt: as §1, §2

[11] = tested on: barnyardgrass (Echinochloa crus-galli); test: Test A preemergence; details: for Plant response rating, Barnyardgrass: 125 g ai/ha; for Barnyardgrass plant response rating (0 to 100 scale, 0 is no effect, 100 is complete control): 500 g ai/ha, visual injury approx. 10 d
Excerpt: as §1, §2

[12] = tested on: pigweed (Amaranthus retroflexus); test: Test A preemergence; details: for Plant response rating, Pigweed: 125 g ai/ha; for Pigweed plant response rating (0 to 100 scale, 0 is no effect, 100 is complete control): 500 g ai/ha, visual injury approx. 10 d
Excerpt: as §1, §2

[13] = tested on: ryegrass, Italian (Italian ryegrass, Lolium multiflorum); test: Test A preemergence; details: for Plant response rating, Ryegrass, Italian: 125 g ai/ha; for Ryegrass, Italian plant response rating (0 to 100 scale, 0 is no effect, 100 is complete control): 500 g ai/ha, visual injury approx. 10 d
Excerpt: as §1, §2

[14] = tested on: ragweed (common ragweed, Ambrosia elatior); test: Test A preemergence; details: for Plant response rating, Ragweed: 125 g ai/ha; for Ragweed plant response rating (0 to 100 scale, 0 is no effect, 100 is complete control): 500 g ai/ha, visual injury approx. 10 d
Excerpt: as §1, §2

[15] = tested on: giant foxtail (Setaria faberii); test: Test A preemergence; details: for Plant response rating, Foxtail, Giant: 125 g ai/ha; for Foxtail, Giant plant response rating (0 to 100 scale, 0 is no effect, 100 is complete control): 500 g ai/ha, visual injury approx. 10 d
Excerpt: as §1, §2

[16] = Postemergence, 0 to 100 scale where 0 is no effect and 100 is complete control
[17] = Preemergence, visual injury after approximately 10 d, 0 to 100 scale where 0 is no effect and 100 is complete control
[18] = postemergence, 0 to 100 scale, 0 no effect, 100 complete control
[19] = preemergence, 0 to 100 scale (0 no effect, 100 complete control)

Structure (SMILES) | Kochia plant response rating (Kochia (Kochia scoparia) [1]; postemergence) | Barnyardgrass plant response rating ([2]; postemergence) | Pigweed plant response rating ([3]; postemergence) | Ryegrass, Italian plant response rating ([4]; postemergence) | Ragweed plant response rating ([5]; postemergence) | Corn plant response rating (corn (Zea mays); postemergence) | Foxtail, Giant plant response rating ([6]; postemergence) | Blackgrass plant response rating ([7]; postemergence) | Wheat plant response rating ([8]; postemergence) | Galium plant response rating ([9]; postemergence) | Kochia plant response rating (0 to 100 scale, 0 is no effect, 100 is complete control) (Kochia (Kochia scoparia) [10]; Preemergence) | Barnyardgrass plant response rating (0 to 100 scale, 0 is no effect, 100 is complete control) ([11]; Preemergence) | Pigweed plant response rating (0 to 100 scale, 0 is no effect, 100 is complete control) ([12]; Preemergence) | Ryegrass, Italian plant response rating (0 to 100 scale, 0 is no effect, 100 is complete control) ([13]; Preemergence) | Ragweed plant response rating (0 to 100 scale, 0 is no effect, 100 is complete control) ([14]; Preemergence) | Foxtail, Giant plant response rating (0 to 100 scale, 0 is no effect, 100 is complete control) ([15]; Preemergence) | other results
O=C1NCC(c2cc(Br)cs2)C1C(=O)Nc1cccc(F)c1F (racemic) [Compound 510] | 0 | 60 | 0 | 0 | 0 | 0 | 10 | 0 | 0 | 0 | 50 | 80 | 0 | 10 | 50 | 70 | Plant response rating, Kochia (Kochia (Kochia scoparia) [1]; [16]): 40; Plant response rating, Barnyardgrass [2, 16]: 70; Plant response rating, Pigweed [3, 16]: 0; Plant response rating, Ryegrass, Italian [4, 16]: 20; Plant response rating, Ragweed [5, 16]: 30; Plant response rating, Corn (corn (Zea mays); [16]): 0; Plant response rating, Foxtail, Giant [6, 16]: 30; Plant response rating, Blackgrass [7, 16]: 40; Plant response rating, Wheat [8, 16]: 0; Plant response rating, Galium [9, 16]: 0; Plant response rating, Kochia (Kochia (Kochia scoparia) [10]; [17]): 30; Plant response rating, Barnyardgrass [11, 17]: 60; Plant response rating, Pigweed [12, 17]: 0; Plant response rating, Ryegrass, Italian [13, 17]: 0; Plant response rating, Ragweed [14, 17]: 30; Plant response rating, Foxtail, Giant [15, 17]: 60
CC(=O)c1ccccc1NC(=O)C1C(=O)NCC1c1ccc(F)c(F)c1 (stereo not shown) [Compound 418] | 0 | 0 | 0 | 0 | 0 | 0 | 0 | 0 | 0 | 0 | 0 | 0 | 0 | 0 | 0 | 0 | Plant response rating, Kochia (Kochia (Kochia scoparia) [1]; [18]): 0; Plant response rating, Barnyardgrass [2, 18]: 0; Plant response rating, Pigweed [3, 18]: 0; Plant response rating, Ryegrass, Italian [4, 18]: 0; Plant response rating, Ragweed [5, 18]: 0; Plant response rating, Corn (corn (Zea mays); [18]): 0; Plant response rating, Foxtail, Giant [6, 18]: 0; Plant response rating, Blackgrass [7, 18]: 0; Plant response rating, Wheat [8, 18]: 0; Plant response rating, Galium [9, 18]: 0; Plant response rating, Kochia (Kochia (Kochia scoparia) [10]; [19]): 0; Plant response rating, Barnyardgrass [11, 19]: 0; Plant response rating, Pigweed [12, 19]: 0; Plant response rating, Ryegrass, Italian [13, 19]: 0; Plant response rating, Ragweed [14, 19]: 0; Plant response rating, Foxtail, Giant [15, 19]: 0
